# Results as given in US10954306B2 (priority 2015, dated 2021).
# Where no end group is shown, it is not given here.
# How the values were obtained:
# [1] = tested on: antibody (polyclonal anti-T14); assay: ELISA motif determination with linear peptide variants; assay type: binding, rabbit; settings: 100 nM peptide, FIGS. 5-10
# Method: The standard curves and the samples were run in triplicate. For the detection of T14, Pep4, T15 and amyloid, 8 nanomolar concentrations of each were used for the ELISA. On the other hand, for the motif determination experiment, only one concentration of each of the peptide variants was used of 100 nM. For the detection of T14 on rat brain samples, different dilutions of the protein were used. […] The standard curve for determination of T14 peptide in brain tissue and the brain tissue samples were diluted in PBS buffer. The standard curves ranged from 8 to 100 nM of T14. Briefly, 96-well immunoplates (NUNC) were coated with 100 μl/well of sample or standard T14, covered with parafilm and incubated overnight at 4° C. The following day the sample was removed by flicking the plate over a sink with running water, and 200 μl of the blocking solution containing 2% Bovine Serum Albumin (BSA) in Tris-Buffered Saline and Tween 20 (TBS-T) was added and incubated for 4 h at room temperature. Blocking solution was then removed and 100 μl of antibody, diluted in blocking solution to 1 μg/ml, was added and incubated overnight at 4° C. The primary antibody was removed the next day and wells were washed 3 times with 200 μl of TBS-T. After, 100 μl of secondary antibody diluted in blocking solution to […] was added and incubated for 2 h at room temperature; the plate was covered with parafilm during all incubations. After 2 h, the plate was washed 4 times with TBS-T. The addition of 3,3,5,5-tetramethylbenzidine started the colour reaction.
# The inventors investigate the immunospecificity of the antibody of the invention by carrying out binding experiments with a series of different linear peptides.
# [2] = T14 aggregation by WB and ELISA; assay type: physicochemical; settings: 200 μM, neutralised PBS, 0-4 hours at 25° C.
# Method: Exogenous T14 stock solution (20 mM) solution was created by resuspension in distilled water. Subsequently, stock solution was diluted to a working stock solution (400 μM) with PBS (pH 10.5). Aggregation was initiated by neutralising the working stock solution by adding PBS (pH 5) to create a final concentration of 200 μM, which was incubated for 0, 1, 2, 3, 4 hours at 25° C. Moreover, T14 monomer control was created by diluting the working stock with PBS (pH 10.5) to 200 μM and incubating at 25° C. for 4 hours. A further no peptide control was created by mixing together pH 5 and pH 10.5 PBS and incubating at 25° C. for 4 hours. WB (A) and ELISA (B) were then conducted on the above T14 aggregation samples and quantified;
# α7 nicotinic-receptor = α7 nicotinic-receptor (Homo sapiens, UniProt P36544); settings: cited from earlier work
# Chain of α7 nicotinic-receptor (P36544 23-502): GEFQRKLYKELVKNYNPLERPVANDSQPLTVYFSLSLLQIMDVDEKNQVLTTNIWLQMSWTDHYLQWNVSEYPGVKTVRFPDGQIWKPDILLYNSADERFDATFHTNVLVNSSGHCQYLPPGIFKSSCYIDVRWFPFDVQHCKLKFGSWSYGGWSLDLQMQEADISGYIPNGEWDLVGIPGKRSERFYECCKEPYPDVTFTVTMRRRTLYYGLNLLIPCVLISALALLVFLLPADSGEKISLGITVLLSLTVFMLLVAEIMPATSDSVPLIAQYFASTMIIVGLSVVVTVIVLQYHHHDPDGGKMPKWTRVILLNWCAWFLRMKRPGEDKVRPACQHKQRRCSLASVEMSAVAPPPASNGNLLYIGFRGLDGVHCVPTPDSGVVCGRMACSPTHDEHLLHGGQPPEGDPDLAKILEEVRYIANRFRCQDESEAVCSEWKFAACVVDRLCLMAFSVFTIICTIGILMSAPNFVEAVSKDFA
# rat brain slices = settings: cited from earlier work
# [3] = tested on: compensatory AChE release; settings: cited from earlier work
substance,measurement,setting,value
AEFHRWSSYMVHWK [Peptide T14],recognition of the peptide by the antibody (ELISA),[1],strongly binds
same,T14 aggregation,[2],grows exponentially
same,T14 monomer pool,[2],remains unchanged
EFHRWSSYMVHWK [Peptide 1305],recognition of the peptide by the antibody (ELISA),[1],strongly binds
FHRWSSYMVHWK [Peptide 1206],recognition of the peptide by the antibody (ELISA),[1],strongly binds
HRWSSYMVHWK [Peptide 1107],recognition of the peptide by the antibody (ELISA),[1],strongly binds
NBP14 (AEFHRWSSYMVHWK; not fully specified),"protection of cells from linear T14, T30 and β-amyloid toxicity",α7 nicotinic-receptor,protect cells
same,effect on Ca2+ concentrations,rat brain slices; given alone,no significant effect
same,effect on Ca2+ concentrations in presence of T30,rat brain slices; with T30,blocks the effects of T30
same,compensatory AChE release induced by the toxicity of linear T14 and T30,[3],blocks
